Assay results as given in ChEMBL document CHEMBL5665443, “Enzyme Inhibitor Single Concentration assay results for EUbOPEN Chemogenomics Library” (2024).

Legend:
[1] = target: N-glycosylase/DNA lyase (Homo sapiens) (UniProt O15527); settings: Hit No;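 further: OGG1 cleavage of a quenched duplex DNA oligonucleotide, coupled to APE1 for strand incision, read as fluorescence at 594 nm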
Description: Inhibition of OGG1 by quantifying inhibition of OGG1-mediated cleavage and dissociation of quenched duplex DNA oligonucleotides, measured as fluorescence at 594 nm. To generate a functional strand incision and increase turn-over this assay is coupled to APE1.

[2] = target: T1, Endonuclease 8-like 2 (Homo sapiens) (UniProt Q969S2);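 further: fluorescence at 594 nm reports NEIL2 cutting and release of a quenched double-stranded DNA oligo substrate, reduced signal read as inhibition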
T1 sequence (whole entry): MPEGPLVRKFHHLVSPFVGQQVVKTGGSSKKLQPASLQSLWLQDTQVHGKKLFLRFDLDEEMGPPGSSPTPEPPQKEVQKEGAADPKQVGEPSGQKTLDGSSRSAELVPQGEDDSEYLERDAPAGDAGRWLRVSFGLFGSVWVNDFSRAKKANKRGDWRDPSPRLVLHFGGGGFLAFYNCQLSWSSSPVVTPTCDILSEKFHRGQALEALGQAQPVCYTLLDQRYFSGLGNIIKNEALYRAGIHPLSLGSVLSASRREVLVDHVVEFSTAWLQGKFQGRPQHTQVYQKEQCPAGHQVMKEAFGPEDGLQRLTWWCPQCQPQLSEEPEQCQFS
Description: Inhibition of NEIL2 by quantifying inhibition of NEIL2-mediated cleavage and dissociation of quenched duplex DNA oligonucleotides, measured as fluorescence at 594 nm.

[3] = target: T2, Adenine DNA glycosylase (Homo sapiens) (UniProt Q9UIF7); settings: Hit No;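 further: human MUTYH activity read as 594 nm fluorescence from cleavage and release of a quenched DNA duplex, coupled with APE1 for strand incision, lower signal meaning inhibition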
T2 sequence (whole entry): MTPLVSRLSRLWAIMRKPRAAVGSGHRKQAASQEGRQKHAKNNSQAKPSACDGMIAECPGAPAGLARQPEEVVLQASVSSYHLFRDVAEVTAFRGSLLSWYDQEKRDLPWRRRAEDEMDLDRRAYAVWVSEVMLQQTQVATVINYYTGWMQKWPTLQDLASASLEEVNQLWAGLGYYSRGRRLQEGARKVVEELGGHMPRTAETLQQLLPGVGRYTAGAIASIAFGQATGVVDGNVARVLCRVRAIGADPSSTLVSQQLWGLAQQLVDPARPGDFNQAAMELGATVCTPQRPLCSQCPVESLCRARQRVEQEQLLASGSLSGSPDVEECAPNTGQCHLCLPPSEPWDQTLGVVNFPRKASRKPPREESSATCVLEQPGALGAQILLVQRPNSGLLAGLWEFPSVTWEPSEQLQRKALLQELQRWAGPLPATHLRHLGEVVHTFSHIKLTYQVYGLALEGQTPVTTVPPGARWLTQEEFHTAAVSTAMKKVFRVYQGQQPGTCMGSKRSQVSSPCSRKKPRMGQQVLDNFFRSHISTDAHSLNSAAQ
Description: Inhibition of MUTYH by quantifying inhibition of MUTYH-mediated cleavage and dissociation of quenched duplex DNA oligonucleotides, measured as fluorescence at 594 nm. To generate a functional strand incision and increase turn-over this assay is coupled to APE1.

[4] = target: T3, Single-strand selective monofunctional uracil DNA glycosylase (Homo sapiens) (UniProt Q53HV7); settings: Hit No;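 further: enzymatic SMUG1 assay coupled with APE1, reading fluorescence at 594 nm released when a quenched double-stranded DNA oligonucleotide substrate is cleaved and separated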
T3 sequence (whole entry): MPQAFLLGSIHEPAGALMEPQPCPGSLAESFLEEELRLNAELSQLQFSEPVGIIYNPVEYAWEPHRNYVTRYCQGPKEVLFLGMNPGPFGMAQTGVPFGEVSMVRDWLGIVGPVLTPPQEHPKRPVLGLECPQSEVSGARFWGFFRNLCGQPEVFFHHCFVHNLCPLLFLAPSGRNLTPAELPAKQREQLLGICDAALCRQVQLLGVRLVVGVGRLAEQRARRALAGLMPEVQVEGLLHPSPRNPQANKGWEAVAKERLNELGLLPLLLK
Description: Inhibition of SMUG1 by quantifying inhibition of SMUG1-mediated cleavage and dissociation of quenched duplex DNA oligonucleotides, measured as fluorescence at 594 nm. To generate a functional strand incision and increase turn-over this assay is coupled to APE1.

[5] = target: G/T mismatch-specific thymine DNA glycosylase (Homo sapiens) (UniProt Q13569); settings: Hit No;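 further: human TDG cleavage of quenched duplex DNA oligonucleotides coupled to APE1, strand release read as fluorescence at 594 nm, inhibition of TDG activity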
G/T mismatch-specific thymine DNA glycosylase (Homo sapiens), sequence (Q13569 whole entry): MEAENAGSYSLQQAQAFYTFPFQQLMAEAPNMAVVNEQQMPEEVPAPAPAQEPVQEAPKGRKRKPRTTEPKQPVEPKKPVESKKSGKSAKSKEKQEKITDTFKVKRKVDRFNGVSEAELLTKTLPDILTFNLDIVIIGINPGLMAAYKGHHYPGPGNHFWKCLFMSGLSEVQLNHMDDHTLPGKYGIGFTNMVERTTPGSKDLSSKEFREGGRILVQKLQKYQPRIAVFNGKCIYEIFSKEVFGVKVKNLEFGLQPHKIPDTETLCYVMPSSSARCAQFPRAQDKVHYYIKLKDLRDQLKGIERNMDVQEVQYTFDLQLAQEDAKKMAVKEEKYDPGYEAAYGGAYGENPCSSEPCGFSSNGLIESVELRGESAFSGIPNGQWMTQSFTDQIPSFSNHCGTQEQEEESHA
Description: Inhibition of TDG by quantifying inhibition of TDG-mediated cleavage and dissociation of quenched duplex DNA oligonucleotides, measured as fluorescence at 594 nm. To generate a functional strand incision and increase turn-over this assay is coupled to APE1.

[6] = target: Uracil-DNA glycosylase (Homo sapiens) (UniProt P13051); settings: Hit No;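 further: UNG excision on a quenched double-stranded DNA oligo probe, with APE1 added for strand incision and turnover, read as fluorescence at 594 nm as strands separate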
Uracil-DNA glycosylase (Homo sapiens), sequence (P13051 whole entry): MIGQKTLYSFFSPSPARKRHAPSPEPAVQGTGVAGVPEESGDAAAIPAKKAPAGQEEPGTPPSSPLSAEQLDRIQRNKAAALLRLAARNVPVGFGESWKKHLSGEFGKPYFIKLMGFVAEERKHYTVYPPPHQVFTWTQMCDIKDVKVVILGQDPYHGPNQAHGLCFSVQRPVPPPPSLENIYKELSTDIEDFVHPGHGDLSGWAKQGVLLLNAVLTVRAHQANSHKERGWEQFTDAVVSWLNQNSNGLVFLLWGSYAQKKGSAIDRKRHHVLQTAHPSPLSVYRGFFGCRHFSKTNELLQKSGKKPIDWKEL
Description: Inhibition of UNG by quantifying inhibition of UNG-mediated cleavage and dissociation of quenched duplex DNA oligonucleotides, measured as fluorescence at 594 nm. To generate a functional strand incision and increase turn-over this assay is coupled to APE1.

[7] = target: Endonuclease 8-like 1 (Homo sapiens) (UniProt Q96FI4); settings: Hit No;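 further: fluorescence at 594 nm from quenched duplex DNA oligonucleotides released by NEIL1 cleavage and strand separation, reported as reduction of this enzyme activity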
Endonuclease 8-like 1 (Homo sapiens), sequence (Q96FI4 whole entry, the tested form may be a part): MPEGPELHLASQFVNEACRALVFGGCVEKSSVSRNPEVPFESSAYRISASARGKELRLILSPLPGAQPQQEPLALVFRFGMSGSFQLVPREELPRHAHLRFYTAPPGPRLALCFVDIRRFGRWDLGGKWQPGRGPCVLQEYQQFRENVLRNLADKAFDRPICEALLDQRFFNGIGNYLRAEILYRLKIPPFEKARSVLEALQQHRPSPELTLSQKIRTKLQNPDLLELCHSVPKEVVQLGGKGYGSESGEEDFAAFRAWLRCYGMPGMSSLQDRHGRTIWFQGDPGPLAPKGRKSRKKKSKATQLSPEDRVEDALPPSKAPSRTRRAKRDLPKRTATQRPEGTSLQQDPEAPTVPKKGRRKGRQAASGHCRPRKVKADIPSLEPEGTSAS
Description: Inhibition of NEIL1 by quantifying inhibition of NEIL1-mediated cleavage and dissociation of quenched duplex DNA oligonucleotides, measured as fluorescence at 594 nm.

[8] = target: Methyl-CpG-binding domain protein 4 (Homo sapiens) (UniProt O95243); settings: Hit No;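 further: MBD4 activity read as fluorescence at 594 nm from cleavage and release of a quenched duplex DNA oligonucleotide, with APE1 coupled to incise the strand and raise turnover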
Methyl-CpG-binding domain protein 4 (Homo sapiens), sequence (O95243 whole entry, the tested form may be a part): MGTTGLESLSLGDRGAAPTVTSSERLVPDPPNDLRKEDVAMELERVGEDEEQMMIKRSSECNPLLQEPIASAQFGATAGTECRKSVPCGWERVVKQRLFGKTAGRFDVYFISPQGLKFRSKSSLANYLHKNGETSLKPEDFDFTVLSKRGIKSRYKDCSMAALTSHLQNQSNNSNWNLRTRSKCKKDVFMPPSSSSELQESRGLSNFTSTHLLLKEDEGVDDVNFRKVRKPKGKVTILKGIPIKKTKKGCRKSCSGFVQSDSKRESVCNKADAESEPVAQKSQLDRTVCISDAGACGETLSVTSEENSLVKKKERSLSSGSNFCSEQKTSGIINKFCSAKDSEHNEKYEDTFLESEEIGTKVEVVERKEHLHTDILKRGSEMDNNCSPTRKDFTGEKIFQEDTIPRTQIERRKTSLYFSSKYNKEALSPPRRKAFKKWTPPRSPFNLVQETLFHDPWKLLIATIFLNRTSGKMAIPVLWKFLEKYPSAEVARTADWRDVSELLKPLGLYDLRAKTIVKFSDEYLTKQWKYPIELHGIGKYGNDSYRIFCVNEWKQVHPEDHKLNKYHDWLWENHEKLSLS
Description: Inhibition of MBD4 by quantifying inhibition of MBD4-mediated cleavage and dissociation of quenched duplex DNA oligonucleotides, measured as fluorescence at 594 nm. To generate a functional strand incision and increase turn-over this assay is coupled to APE1.

[9] = Compound Concentration 10.0 uM, Hit No
[10] = Compound Concentration 1.0 uM, Hit No
[11] = Compound Concentration 10.0 uM, tested as the 2H-labelled form

N-glycosylase/DNA lyase (Homo sapiens), sequence (O15527 whole entry): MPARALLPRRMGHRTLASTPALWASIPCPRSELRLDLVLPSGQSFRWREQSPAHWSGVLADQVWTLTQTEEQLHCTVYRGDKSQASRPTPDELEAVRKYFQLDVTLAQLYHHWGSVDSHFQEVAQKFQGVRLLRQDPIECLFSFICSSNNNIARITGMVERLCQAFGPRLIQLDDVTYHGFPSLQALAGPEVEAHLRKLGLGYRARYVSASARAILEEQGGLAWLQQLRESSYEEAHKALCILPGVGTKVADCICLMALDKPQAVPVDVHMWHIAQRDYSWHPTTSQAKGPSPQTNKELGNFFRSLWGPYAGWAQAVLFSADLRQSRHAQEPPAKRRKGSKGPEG

| Compound | inhibition ([1]; Compound Concentration 10.0 uM) | inhibition ([3]; Compound Concentration 10.0 uM) | inhibition ([4]; Compound Concentration 10.0 uM) | inhibition ([5]; Compound Concentration 10.0 uM) | inhibition ([6]; Compound Concentration 10.0 uM) | inhibition ([7]; Compound Concentration 10.0 uM) | inhibition ([8]; Compound Concentration 10.0 uM) | inhibition [2, 9] | other results |
| --- | --- | --- | --- | --- | --- | --- | --- | --- | --- |
| CNCc1ccccc1-c1csc([C@@H](C)Nc2nc(C)nc3cc(OC)c(OC)cc23)c1 | 16.5% | 19.2% | 5.31% | 66.2% | 14.2% | -5.89% | 8.88% |  | inhibition ([2]; Compound Concentration 10.0 uM, Hit Yes): 38% |
| Cn1nc(C(F)(F)F)cc1-c1cnc(N2CCc3cc(S(=O)(=O)Nc4c(F)cc(Cl)cc4F)cc(N4CCCC4=O)c32)nc1 | 12.6% | 17.9% | 9.91% | 53.9% | 1.37% |  | 59.5% | 4.87% |  |
| CN1CCN(c2cnc3c(C4CCN(C(=O)c5ccc(OC(F)(F)F)cc5N)CC4)ncnc3c2)CC1 | -1.54% | 2.58% | 11.7% | 43.6% | 5.02% | -2.58% | 22.6% | -8.19% |  |
| O=S(=O)(Nc1ccc(C(O)(C(F)(F)F)C(F)(F)F)cc1)c1cccs1 | 9.18% | 12.6% | 19.9% | 99.8% | 4.47% | -9.23% | 63.6% | -2.02% |  |
| CN(C)[C@H]1CCN(c2cc(-c3ccccc3)nc3ccnn23)C1 | 10.6% | 15.6% | 13.5% | 49% | 9.72% | 6.98% | 77.8% | 9.71% |  |
| Nc1c(C(=O)NCc2ccc(C(=O)NCCCC3CCCCC3)cc2)cnn1-c1ccccc1 | 19.8% | 5.04% | -1.31% | 35.6% | 4.78% |  |  |  | inhibition ([1]; Compound Concentration 1.0 uM): 3.23%; inhibition [2, 10]: -8.91%; inhibition ([4]; Compound Concentration 1.0 uM): 3.4%; inhibition ([5]; Compound Concentration 1.0 uM): 47%; inhibition ([6]; Compound Concentration 1.0 uM): -7.24%; inhibition ([7]; Compound Concentration 1.0 uM): -2.11%; inhibition ([8]; Compound Concentration 1.0 uM): 59.9% |
| COc1cc(-c2cn([C@H]3CCc4c(F)cccc4N(CC(F)(F)F)C3=O)nn2)ccc1-n1cnc(C)c1 | 6.38% | 0.879% | 19.7% | 47.4% | 4.8% | -9.83% | 40% | 11.2% |  |
| O=C(N[C@H]1CCCCC/C=C\C2C[C@@]2(C(=O)O)NC(=O)[C@@H]2C[C@@H](Oc3ccncc3)CN2C1=O)OC1CCCC1 (some centres undefined) | 25.2% | 1.97% | 20% | 61.5% | 4.34% | 2.74% | 61.8% | -0.999% |  |
| CCS(=O)(=O)c1cc2cc(C[C@@](O)(CC(C)(C)c3ccc(F)cc3C(N)=O)C(F)(F)F)[nH]c2cn1 |  |  |  |  |  |  |  |  | inhibition ([1]; Compound Concentration 1.0 uM): -3.12%; inhibition [2, 10]: -6.61%; inhibition ([3]; Compound Concentration 1.0 uM): -2.67%; inhibition ([4]; Compound Concentration 1.0 uM): 5.35%; inhibition ([5]; Compound Concentration 1.0 uM): 28.1%; inhibition ([6]; Compound Concentration 1.0 uM): -1.88%; inhibition ([8]; Compound Concentration 1.0 uM): 66.5% |
| CCNC(=O)c1cc2c(N3CCOC[C@@H]3C)ccnc2n1C | 11.4% | -5.18% | 6.82% | 31.4% | -0.625% |  | 67% | -9.42% |  |
| NC(=O)c1ccc2nc(-c3ccc(C4(N)CCC4)cc3)c(-c3ccccc3)n2n1 |  |  |  |  |  |  |  |  | inhibition ([1]; Compound Concentration 1.0 uM): 4.13%; inhibition [2, 10]: -7.61%; inhibition ([3]; Compound Concentration 1.0 uM): 26.6%; inhibition ([4]; Compound Concentration 1.0 uM): 21.7%; inhibition ([5]; Compound Concentration 1.0 uM): 71.4%; inhibition ([6]; Compound Concentration 1.0 uM): 3.74%; inhibition ([8]; Compound Concentration 1.0 uM): 31.7% |
| C[C@@H]1CN(c2ncc(Cl)c(Nc3ccc4c(c3)n(CCC(C)(C)O)c(=O)n4C)n2)C[C@H](C)C1(F)F | -2.08% | 2.19% | 18% | 57.5% | 9.4% |  | 66.3% | -9.67% |  |
| CC1(C)Cn2nc(-c3ccc(F)cn3)c(-c3ccnc4[nH]ncc34)c2CO1 |  |  |  |  |  |  |  |  | inhibition [1, 11]: -6.31%; inhibition ([2]; Compound Concentration 10.0 uM, Hit No, tested as the 2H-labelled form): -8.4%; inhibition [3, 11]: -5.13%; inhibition [4, 11]: 12.7%; inhibition [5, 11]: 99.8%; inhibition [6, 11]: 0.65%; inhibition [8, 11]: 55.2% |
| O=C(NCc1ncc(C(F)(F)F)cc1Cl)c1ccc2c(c1)C1(CCS(=O)(=O)CC1)[C@H](C1CC1)N2S(=O)(=O)c1ccc(F)cc1 |  |  |  |  |  |  |  |  | inhibition ([1]; Compound Concentration 1.0 uM): -6.07%; inhibition [2, 10]: -0.744%; inhibition ([3]; Compound Concentration 1.0 uM): 2.13%; inhibition ([4]; Compound Concentration 1.0 uM): -4%; inhibition ([5]; Compound Concentration 1.0 uM): 38.8%; inhibition ([6]; Compound Concentration 1.0 uM): -0.35%; inhibition ([8]; Compound Concentration 1.0 uM): 59.6% |
| CC(=O)C1=C(C)N(c2cccc(C(F)(F)F)c2)C(=O)N[C@H]1c1ccc(C#N)nc1 | -1.74% | -5.95% | 10.2% | 45.5% | -0.968% |  | 60.5% | 6.4% |  |
| CCO[C@@H](Cc1ccc(OCCc2ccc(OS(C)(=O)=O)cc2)cc1)C(=O)O | 7.36% | -4.86% | 20.9% | 43.6% | 1.73% |  | 65.1% | -6.87% |  |
| C[C@@H](NC(=O)Nc1cc2[nH]ncc2c(CO)n1)c1ccccc1 | 4.45% | 3.93% | 21.2% | 70.5% | 3.78% |  | 29.7% | -3.37% |  |
| Cc1nc(-c2cn3c(n2)-c2ccc(-c4cnn(C(C)(C)C(N)=O)c4)cc2OCC3)n(C(C)C)n1 |  |  |  |  |  |  |  |  | inhibition ([1]; Compound Concentration 1.0 uM): 1.09%; inhibition [2, 10]: -7.57%; inhibition ([3]; Compound Concentration 1.0 uM): 3.04%; inhibition ([4]; Compound Concentration 1.0 uM): 19.2%; inhibition ([5]; Compound Concentration 1.0 uM): 60%; inhibition ([6]; Compound Concentration 1.0 uM): 0.537%; inhibition ([8]; Compound Concentration 1.0 uM): -2.34% |
| COc1cc2c(cc1CC=C(C)C)C(=O)C[C@@H](c1ccc(O)cc1)O2 | 19.1% | -5.24% | 19.4% | 49.3% | 0.826% |  | 61.9% | -5.59% |  |
